Test results reported in patent publication US20240199647A1, “ANTI-VIRAL COMPOUNDS” (Aligos Therapeutics, Inc., priority 2022, published 2024).
Where two headings read alike, the source gives them in different places.

Columns and labels:
[1] = Toxicity testing in A549-dual_ACE2_TMPRSS2 cells without virus (MTS); conditions: human
[2] = Cytotoxicity in HeLa cells without addition of OC43 virus (in parallel); conditions: human, HeLa cells, without OC43 virus
SARS-Cov-2 3CLpro = SARS-Cov-2 3CLpro (Severe acute respiratory syndrome coronavirus 2, UniProt P0DTD1); test: biochemical; conditions: Table A, class symbols
[3] = tested on: human beta-coronavirus OC43; test: OC43 Coronavirus Assay in HeLa cells (antiviral, cytopathic effect, cell-titer-glo); type: cell-based; conditions: Table B, OC43 coronavirus in HeLa cells, read-out: EC50
[4] = tested on: SARS-CoV-2 B.1.1.7 lineage; test: microbe, parasite or virus in culture; type: cell-based; conditions: Table C, SARS-CoV-2 B.1.1.7 in A549-dual_ACE2_TMPRSS2 cells, cells given as a bound, read-out: A549-dual_ACE2_TMPRSS2 (EC50)
[5] = tested on: A549-dual_ACE2_TMPRSS2 cells; test: Toxicity testing in A549-dual_ACE2_TMPRSS2 cells without virus (MTS); conditions: read-out: A549-dual_ACE2_TMPRSS2 (CC50); Table C; A549-dual_ACE2_TMPRSS2 cells without virus, class symbols
[6] = tested on: HeLa human cervical epithelial cells; test: Cytotoxicity in HeLa cells without addition of OC43 virus (in parallel); conditions: Table B; HeLa cells without OC43 virus, class symbols

SMILES | CC50 [1] | CC50 at 6 days [2] | IC50 (SARS-Cov-2 3CLpro; SARS-Cov-2 (IC50)) | EC50 ([3]; Betacoronavirus 1, class symbols) | EC50 ([4]; Severe acute respiratory syndrome coronavirus 2) | CC50 [5] | CC50 [6] | IC50 (SARS-Cov-2 3CLpro; read-out: SARS-Cov-2 (IC50)) | EC50 ([3]; cells given as a bound) | EC50 [4]
C[C@H](NC(=O)Oc1ccc(F)cc1)C(=O)N(C)[C@@H](CC1CC1)C(=O)N1C[C@@]2(C[C@H]1C#N)Oc1cc(F)cc(F)c1NC2=O [Compound 119, 4-fluorophenyl ((S)-1-(((S)-1-((2R,5'S)-5′-cyano-5,7-difluoro-3-oxo-3,4-dihydrospiro[benzo[b][1,4]oxazine-2,3′-pyrrolidin]-1′-yl)-3-cyclopropyl-1-oxopropan-2-yl)(methyl)amino)-1-oxopropan-2-yl)carbamate] | > 1000 nM | > 10 µM | < 20 nM | 100 to 1000 nM | > 1000 nM | – | – | – | – | –
Cc1nnn(C(CC2CC2)C(=O)N(C)[C@@H](CC2CC2)C(=O)N2C[C@@]3(C[C@H]2C#N)Oc2cc(F)cc(F)c2NC3=O)c1C (relative stereo) [Compound 118, ((R*)—N—((S)-1-((2R,5'S)-5′-cyano-5,7-difluoro-3-oxo-3,4-dihydrospiro[benzo[b][1,4]oxazine-2,3′-pyrrolidin]-1′-yl)-3-cyclopropyl-1-oxopropan-2-yl)-3-cyclopropyl-2-(4,5-dimethyl-1H-1,2,3-triazol-1-yl)-N-methylpropanamide] | – | – | – | – | – | > 1000 nM | > 10 µM | 200 to 2000 nM | > 10000 nM | > 1000 nM
